Source: ChEMBL document CHEMBL1201862, “PubChem BioAssay data set” (2004)
Where a name gives a salt, the structure may show the parent alone. Calls of active or inactive are those of the source.

Tests used:
[1] = loss of viability in HepG2 cells – cell-based, CellTiter-Glo, cherry-picked, cytotoxicity control for Shn3 inhibitor project, dose response (AID 624134); assay type: functional
[2] = Shn3 3'UTR reporter signal decrease – cell-based, Clone20 osteoblasts, firefly luciferase, cherry-pick, set 2, Schnurri-3 inhibitor project, dose response (AID 720490); assay type: functional;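 further: actives lower the luminescence signal as inhibitors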
[3] = non-specific 3'UTR reporter inhibition in Clone20-Shn3RL – cell-based, Renilla luciferase, cherry-picked, counter-screen for Shn3 inhibitor project, dose response (AID 624133); assay type: functional
[4] = reduction of Shn3 3'UTR-driven luciferase in osteoblasts – cell-based, Clone20 osteoblasts, firefly luciferase, cherry-picked, dose response (AID 624132); assay type: functional;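 further: firefly luciferase luminescence from reporter carrying the Shn3 3'UTR in osteoblasts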
[5] = toxicity to human hepatoma HepG2 cells – cell-based, cherry-picked samples, cytotoxicity control, dose response (AID 1159577); assay type: functional
[6] = growth inhibition of PfATP4-mutant resistant parasites – NITD609-resistant line, SYBR Green, dry powder, dose response (AID 1159571); assay type: functional, cell-based;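 further: parasites synchronized at ring stage by sorbitol before testing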
[7] = Dd2 malaria parasite growth inhibition potency – SYBR Green, dry powder samples, dose response (AID 1159566); assay type: functional, cell-based;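 further: potency for growth inhibition with lower SYBR green DNA signal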
[8] = P. falciparum Dd2 growth inhibitors, dose response, SYBR Green, cherry-picked samples (AID 1159567); assay type: functional, cell-based
[9] = toxicity to human HepG2 hepatoma cells – cell-based, plate reader, dry powder samples, cytotoxicity control, dose response (AID 1159569); assay type: functional;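 further: inhibitor potency with signal falling toward the positive control level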
[10] = growth inhibition of yeast DHODH-expressing 3D7 parasites – SYBR Green, dry powder samples, dose response (AID 1159570); assay type: functional, cell-based;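 further: parasite growth measured after 72 hours of compound exposure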
[11] = molecular target: Heat shock protein HSP 90-alpha (Homo sapiens, UniProt P07900); assay type: functional, organism-based
[12] = viability loss in A549 lung cancer cells – cell-based, cherry-picks, […], cytotoxicity control, dose response (AID 1053119); assay type: functional
[13] = fluconazole-exposed Candida albicans growth modulators – fluorescence, retest, confirmation (AID 2467); assay type: functional, cell-based
[14] = NIH-3T3 fibroblast cytotoxicity, dose response, cytotoxicity control, cell-based, fluorescence, Alamar Blue, secondary assay (AID 2327); assay type: functional;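 further: NIH-3T3 mouse fibroblasts cultured with fluconazole at 8 µg/mL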
[15] = molecular target: NAD-dependent protein deacylase sirtuin-5, mitochondrial (Homo sapiens, UniProt Q9NXA8); experiment: blockers of sirtuin-5 peptide desuccinylation – biochemical, fluorescence imaging, cherry-pick, set 6, dose response (AID 720597)
cells [16] = experiment: cells
Major prion protein = Major prion protein (Homo sapiens, UniProt P04156); assay type: functional, cell-based
cells [17] = experiment: cells; remark: listed apart in the source
[18] = kidney cell line viability loss – HEK293T, luminescence plate reader, powder samples, set 4, cytotoxicity control, dose response (AID 651863); assay type: functional, cell-based; conditions: HEK293
[19] = inhibition of ADAM10 peptide cleavage – biochemical, FRET peptide substrate, recombinant human ADAM10, selectivity assay for ADAM17 exosite inhibitor project, dose response (AID 743259);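 further: ADAM10 enzyme cleaving a FRET peptide substrate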
[20] = molecular target: Disintegrin and metalloproteinase domain-containing protein 17 (Homo sapiens, UniProt P78536); experiment: exosite inhibitors of ADAM17, dose response, biochemical (AID 743260)
[21] = molecular target: T1, Oxysterols receptor LXR-beta (Homo sapiens, UniProt P55055); assay type: functional, cell-based;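 further: agonist activity at LXR measured by a cell-based luminescence readout across a dose range, run as a counterscreen for daf-12 agonists; HEK293 cells with Gal4-LXR fusion and GAL4-driven luciferase reporter; potency for activation of Gal4-LXR reporter so compounds are agonists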
T1 sequence (P55055 whole entry): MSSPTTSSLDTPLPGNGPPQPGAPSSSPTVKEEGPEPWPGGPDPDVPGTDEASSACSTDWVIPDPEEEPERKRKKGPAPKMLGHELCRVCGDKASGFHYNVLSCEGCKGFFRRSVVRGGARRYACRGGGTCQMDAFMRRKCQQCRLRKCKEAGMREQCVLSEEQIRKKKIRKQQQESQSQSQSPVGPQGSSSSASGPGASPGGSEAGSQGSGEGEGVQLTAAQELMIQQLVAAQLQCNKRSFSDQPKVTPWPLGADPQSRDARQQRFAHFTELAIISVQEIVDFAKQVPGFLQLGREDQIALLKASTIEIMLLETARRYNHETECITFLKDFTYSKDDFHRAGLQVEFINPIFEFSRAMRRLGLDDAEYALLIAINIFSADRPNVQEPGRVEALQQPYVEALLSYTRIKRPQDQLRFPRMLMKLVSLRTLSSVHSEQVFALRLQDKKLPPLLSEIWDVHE

[22] = viability loss in HepG2 hepatoma cells – cell-based, ATP luminescence, cherry-pick, activator set 2, cytotoxicity control, dose response (AID 1053143); assay type: functional
[23] = rise of 4N DNA cells, HeLa – IC50, dose response (AID 1117351); assay type: functional, cell-based
[24] = rise of 2N DNA cells, HeLa – IC50, dose response (AID 1117349); assay type: functional, cell-based
cells [25] = assay type: functional, cell-based; conditions: INS-1E

## O=C(Nc1ccc(N2CCOCC2)cc1)c1ccc(Cl)c(S(=O)(=O)N2CCCC2)c1
[1]
  AC50: 69.4 µM (active)
[2]
  AC50: 2.65 µM (active)
[3]
  AC50: 22.3 µM (active)
[4]
  AC50: 2.17 µM (active)

## Cc1cccc(S(=O)(=O)N2C[C@@H]3N[C@H](C2)[C@H]3c2ccc(-c3ccncc3)cc2)c1
[5]
  AC50: > 39 µM (inactive)
[6]
  AC50: 3.58 µM (active)
[7]
  AC50: 1.48 µM (active)
[8]
  AC50: 1.84 µM (active)
[9]
  AC50: 41.5 µM (active)
[10]
  AC50: 2.12 µM (active)

## Cc1ccc(O)c(-c2cc(-c3cccc(Br)c3)[nH]n2)c1
[11]
  AC50: 3.01 µM (active)
[12]
  AC50: 37.3 µM (active)
[13]
  EC50: 4.48 µM (active)
[14]
  EC50: 16.3 µM (active)

## C[C@H](CO)N1C[C@H](C)[C@H](CN(C)Cc2ccncc2)Oc2ncc(C#CCN(C)C)cc2C1=O
[15]
  AC50: > 30 µM (inactive)

## CCOC(=O)CSc1nc(C(C)(C)C)nc2ccccc12
Cells [16]
  IC50: > 138 µM (inactive)
Major prion protein
  IC50: 6.98 µM (active)

## CCCN1CCc2c(sc(NC(=O)C3CCN(S(=O)(=O)c4cccs4)CC3)c2C(N)=O)C1
Cells [17]
  AC50: 5.17 µM (active)

## CCOC(=O)C(C(=O)OCC)c1cc(CNS(=O)(=O)c2ccc(C)cc2C)c2ccccc2n1
[18]
  AC50: > 52 µM (inactive)

## COc1ccc(N(C)S(=O)(=O)c2cccc(C(=O)OC(C(=O)Nc3cc(C)cc(C)c3)c3ccccc3)c2)cc1 (stereo unspecified)
[19]
  IC50: > 69.5 µM (inactive)
[20]
  IC50: > 69.5 µM (inactive)

## COCCNc1nc(-c2cc3ccccc3o2)cs1
[21]
  EC50: > 67.5 µM (inactive)

## CCC(=O)Nc1cc2nn(-c3ccccc3)nc2cc1Cl
[22]
  AC50: 5.02 µM (active)

## Cc1ccccc1C(OCCN(C)C)c1ccccc1 (stereo unspecified) [ORPHENADRINE CITRATE]
[23]
  IC50: > 10 µM (inactive)
[24]
  IC50: > 10 µM (inactive)
Cells [25]
  IC50: > 33.3 µM (inactive)
